# Patent US12522836B2, “Nonhuman animal and use for same” (Inter-University Research Institute Corporation Research …, priority 2019, dated 2026)
# Legend:
# [1] = target: T1, OsTIR1(F74G)/mAID-EGFP-NLS expressing cell (Oryza sativa subsp. japonica, UniProt Q7XVM8, F74G); experiment: FACS analysis of degradation of mAID-EGFP-NLS after addition of auxin analog; assay type: cell-based, human; details: Example 2; 50 nM, 100 nM, 500 nM or 1 μM, 24 hours; compared with OsTIR1(WT) cell plus auxin
# T1 construct: expressed in transfected cells; host or cells: HCT116
# Procedure: An HCT116 cell (human colon adenocarcinoma-derived cell) having DNA in which an OsTIR1(WT) gene or OsTIR1(F74G) gene and an mAID-EGFP (green fluorescent protein)-NLS (nuclear localization signal) gene were encoded through a P2A sequence inserted onto a chromosome by a transposon (hereinafter, referred to as “OsTIR1(WT)/mAID-EGFP-NLS expressing cell” or “OsTIR1(F74G)/mAID-EGFP-NLS expressing cell”) was prepared (refer to FIG. 1).
# The auxin analog (concentration in culture medium: […]) was added to the OsTIR1(F74G)/mAID-EGFP-NLS expressing cell and cultured for 24 hours. In addition, as a control, a cell containing an auxin added to the OsTIR1(WT)/mAID-EGFP-NLS expressing cell was also prepared.
# After 24 hours from the addition of the auxin analog, the cells were collected, and FACS analysis was performed.
# An HCT116 cell (human colon adenocarcinoma-derived cell) in which a plasmid containing an OsTIR1(WT) gene or OsTIR1(F74G) gene was introduced and an mAID-EGFP (green fluorescent protein)-NLS (nuclear localization signal) gene was inserted onto a chromosome (hereinafter, referred to as “OsTIR1(WT)/mAID-EGFP-NLS expressing cell” or “OsTIR1(F74G)/mAID-EGFP-NLS expressing cell”) was prepared (refer to FIG. 1).
# The auxin analog (concentration in culture medium: 0, 50 nM, 100 nM, 500 nM or 1 μM) was added to the OsTIR1(F74G)/mAID-EGFP-NLS expressing cell and cultured for 24 hours. […]
# [2] = target: T2, OsTIR1(F74G)/DHC1-mAID-Clover expressing cell (Oryza sativa subsp. japonica, UniProt Q7XVM8, F74G); experiment: Degradation induction test of DHC1 (microscopy, Western blotting); assay type: cell-based, human
# T2 construct: expressed in transfected cells; host or cells: HCT116 (OsTIR1 at AAVS1 locus; knock-in at the endogenous DHC1 gene)
# From the text: In the HCT116 cell, an OsTIR1(WT) gene or OsTIR1(F74G) gene was introduced into an AAVS1 gene locus, which is a safe harbor site, using a CRISPR/Cas system, and an OsTIR1(WT)-expressed HCT116 cell or OsTIR1(F74G)-expressed HCT116 cell was constructed.
# A plasmid vector having mAID, clover and a neomycin resistance gene and having a homologous sequence with respect to a DHC1 gene so as to sandwich mAID and the neomycin resistance gene was introduced into the OsTIR1(WT)-expressed HCT116 cell or OsTIR1(F74G)-expressed HCT116 cell using a CRISPR/Cas9 system, and homologous recombination with the endogenous DHC1 gene was performed. Next, after selection by G418, the formed colony was dyed using crystal violet. “DHC1” is the abbreviation for dynein heavy chain 1.
# A degradation induction test of DHC1 was performed using the HCT116 cell expressing OsTIR1(F74G) on which homologous recombination had been performed in the above-described section 2 (hereinafter, referred to as “OsTIR1(F74G)/DHC1-mAID-Clover expressing cell”).
# The compound indicated by the formula (I-2) (also referred to as 5-Ph-IAA) was added to the OsTIR1(F74G)/DHC1-mAID-Clover expressing cell, and the appearance of the cell after 24 hours was observed (FIG. 4(A)).
# Furthermore, the degradation of DHC1 was confirmed by Western blotting (FIG. 4(B)).
# [3] = target: T3, mAID-EGFP-CENPH (Oryza sativa subsp. japonica, UniProt Q7XVM8, F74G); experiment: Western blotting of mAID-EGFP-CENPH degradation in HeLa cell (transposon vector + CRISPR-KO system); assay type: cell-based, human; details: anti-CENPH antibody, endogenous CENPH knocked out
# T3 construct: P2A linker (self-cleaving; remnant); expressed in transfected cells; host or cells: HeLa
# From the text: (§1) In this degradation system, (1) a transposon vector in which an OsTIR1(F74G) gene and an mAID-target gene are connected by a P2A linker gene and (2) a CRISPR-KO vector for knocking out an endogenous target gene containing gRNA and a Cas9 gene are contained.
# (§2) In this degradation system, the OsTIR1(F74G) gene and the mAID-target gene in a genome are integrated by the transposon vector, and an endogenous target gene is knocked out by the CRISPR-KO vector.
# (§3) The transposon vector in which an OsTIR1(F74G) gene and an mAID-EGFP-CENPH or mAID-EGFP-POLD1 target gene were connected by a P2A linker gene was constructed, and this vector was introduced into a HeLa cell together with the CRISPR-KO vector targeting an endogenous CENPH or POLD1 gene. 5-Ph-IAA was added to such a cell, and the degradation of the target protein was confirmed by Western blotting (FIG. 6).
# [4] = target: T4, mAID-EGFP-POLD1 (Oryza sativa subsp. japonica, UniProt Q7XVM8, F74G); experiment: Western blotting of mAID-EGFP-POLD1 degradation in HeLa cell (transposon vector + CRISPR-KO system); assay type: cell-based, human; details: anti-POLD1 antibody, clones #1 to #3, endogenous POLD1 knocked out
# T4 construct: P2A linker (self-cleaving; remnant); expressed in transfected cells; host or cells: HeLa
# From the text: as §1, §2, §3
# [5] = Toxicity evaluation in mice (body weight); assay type: in vivo; details: 1, 3 and 10 mg/kg intraperitoneally daily for 1 week
# Procedure: Toxicity was evaluated by intraperitoneally administering 0, 1, 3, and 10 mg/kg of 5-Ph-IAA daily for 1 week. As shown in FIG. 7(B), a change in body weight of the mice which had been subjected to the administration was not observed.
# [6] = tested on: HCT116 cells expressing OsTIR1(F74G); experiment: Control xenograft of HCT116 cells expressing OsTIR1(F74G) in nude mice; assay type: in vivo; details: 1, 3 and 10 mg/kg intraperitoneally daily, day 7 to day 14; control without degron-tagged target
# [7] = target: T5, mAID-BRD4 xenografts (Oryza sativa subsp. japonica, UniProt Q7XVM8, F74G); experiment: mAID-BRD4 cell xenograft tumor growth in nude mice; assay type: in vivo
# T5 construct: expressed in transfected cells; host or cells: HCT116 CMV-OsTIR1(F74G), xenografted into nude mice
# Procedure: (§4) Subsequently, mAID-BRD4 cells or TOP2A-mAC cells were subcutaneously transplanted into nude mice and xenograft tumors were formed in 1 week. After that, 0, 1, 3, and 10 mg/kg of 5-Ph-IAA were intraperitoneally administered daily for an additional week (day 7 to day 14). […] It was confirmed that, when the AID2 system is used, mAID-BRD4 and TOP2A-mAC were successfully removed in a living body of mice, causing tumor suppression.
# Furthermore, 3 mg/kg of 5-Ph-IAA was orally administered to nude mice in which mAID-BRD4 cells were xenografted. FIG. 13(A) is a diagram showing an oral administration schedule of 5-Ph-IAA.
# [8] = target: T6, TOP2A-mAC xenografts (Oryza sativa subsp. japonica, UniProt Q7XVM8, F74G); experiment: TOP2A-mAC cell xenograft tumor growth in nude mice; assay type: in vivo; details: 1, 3 and 10 mg/kg intraperitoneally daily, day 7 to day 14
# T6 construct: expressed in transfected cells; host or cells: HCT116 CMV-OsTIR1(F74G), xenografted into nude mice
# Procedure: as §4
# [9] = target: T7, mAID-EGFP reporters (Oryza sativa subsp. japonica, UniProt Q7XVM8, F74G); experiment: Reporter removal in transgenic mice expressing OsTIR1(F74G) and mAID-EGFP reporter; assay type: in vivo
# T7 construct: expressed in transfected cells; host or cells: transgenic mice (organs and E13.5 embryos)
# Procedure: In order to further confirm whether the AID2 system functioned in a living body of mice, an attempt to establish transgenic mice expressing OsTIR1(WT) or OsTIR1(F74G) together with mAID-EGFP reporters was performed. As shown in FIG. 11(A), OsTIR1(WT) was confirmed to cause embryonic lethality. In contrast, the establishment of a plurality of mouse strains expressing OsTIR1(F74G) and reporters was confirmed (refer to FIG. 11(A).
# Two adult female transgenic mice from the same TG strain were used to remove reporters in a plurality of organs.
# First, as shown in FIG. 11(B), the expression of reporters in the ovaries and fallopian tubes surgically removed from untreated transgenic mice was confirmed.
# Subsequently, pseudo-administration is performed on one mouse and 10 mg/kg 5-ph-IAA was intraperitoneally administered to the other mouse. […] The same data was obtained for adult male mice derived from the same TG strain.
# Finally, the expression of the reporter in embryos was examined to confirm a rate of removal of a target protein using the AID2 system in vivo. 5 mg/kg of 5-Ph-IAA was intraperitoneally administered to pregnant females with E13.5 embryos. As shown in FIG. 11(D), a reporter signal disappeared within 1 hour after administration and rapid removal of the reporter in vivo was confirmed.
# [10] = tested on: OsTIR1(F74A)/mAID-EGFP-NLS-expressing cells; experiment: Reversibility of the AID2 system: reporter recovery after removal of 5-Ph-IAA; assay type: cell-based; details: medium replaced with medium without 5-Ph-IAA
smiles,measurement,setting,value
"O=C(O)Cc1c[nH]c2ccc(-c3ccccc3)cc12 [5-Ph-IAA, 5-phenyl-indole 3-acetic acid]",degradation of GFP (FACS) at low concentrations,[1],functioned at a considerably low concentration
same,appearance of the cell (mitotic accumulation),[2]; 24 hours after addition,accumulation of cells in the mitotic period was observed
same,degradation of DHC1-mAID-Clover fused protein (microscopic images),[2]; 24 hours after addition,degraded a DHC1-mAID-Clover fused protein
same,degradation of DHC1 and mAID by Western blotting,[2]; clones #1 to #3,degradation of DHC1 and mAID was confirmed
same,degradation of mAID-EGFP-CENPH by Western blotting,[3],degradation of mAID-EGFP-CENPH was confirmed
same,degradation of mAID-EGFP-POLD1 by Western blotting,[4],degradation of mAID-EGFP-POLD1 was confirmed
same,change in body weight,[5],not observed
same,tumor suppression,[6],the tumor suppression was not observed
same,tumor suppression,[7]; 3 mg/kg orally,significant tumor suppression
same,tumor suppression,"[7]; 1, 3 and 10 mg/kg intraperitoneally daily, day 7 to day 14",significant tumor suppression
same,tumor suppression,[8],a similar tendency was observed
same,time to disappearance of reporter signal in embryos,[9]; 5 mg/kg intraperitoneally to pregnant females with E13.5 embryos,≤ 1 h
same,expression of the reporter in organs,"[9]; 10 mg/kg intraperitoneally, 6 hours after administration, ovary, fallopian tubes, small intestine, heart, bladder, brain, adult female",significantly reduced
same,time to full restoration of reporter expression after medium replacement,[10],3 h
